Test results from US9492471B2, “Methods of treating a disease or disorder associated with Bruton'S Tyrosine Kinase” (Celgene Avilomics Research, Inc., priority 2013, dated 2016).
Like-named read-outs stand apart in the source and are kept apart here.

How the values were obtained:
Experiment in all cases: HotSpot kinase profiling
Format in all cases: biochemical
FGFR2 = target: T1, FGFR2 (Homo sapiens, UniProt P21802)
T1 construct: purchased Reaction Biology Corp
Procedure, shortened: (§1)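 P81 filtration radiometric readout; 2 h incubation at room temperature; 0.1% phosphoric acid wash; DMSO negative control; % inhibition, mean of replicate runs.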

FMS = target: T2, FMS (Homo sapiens, UniProt P07333)
T2 construct: purchased Reaction Biology Corp
Procedure, shortened: as §1

GSK3a = target: T3, GSK3a (Homo sapiens, UniProt P49840)
T3 construct: purchased Reaction Biology Corp
Procedure, shortened: as §1

MEKK2 = target: T4, MEKK2 (Homo sapiens, UniProt Q9Y2U5)
T4 construct: purchased Reaction Biology Corp
T4 sequence (Q9Y2U5 1-619): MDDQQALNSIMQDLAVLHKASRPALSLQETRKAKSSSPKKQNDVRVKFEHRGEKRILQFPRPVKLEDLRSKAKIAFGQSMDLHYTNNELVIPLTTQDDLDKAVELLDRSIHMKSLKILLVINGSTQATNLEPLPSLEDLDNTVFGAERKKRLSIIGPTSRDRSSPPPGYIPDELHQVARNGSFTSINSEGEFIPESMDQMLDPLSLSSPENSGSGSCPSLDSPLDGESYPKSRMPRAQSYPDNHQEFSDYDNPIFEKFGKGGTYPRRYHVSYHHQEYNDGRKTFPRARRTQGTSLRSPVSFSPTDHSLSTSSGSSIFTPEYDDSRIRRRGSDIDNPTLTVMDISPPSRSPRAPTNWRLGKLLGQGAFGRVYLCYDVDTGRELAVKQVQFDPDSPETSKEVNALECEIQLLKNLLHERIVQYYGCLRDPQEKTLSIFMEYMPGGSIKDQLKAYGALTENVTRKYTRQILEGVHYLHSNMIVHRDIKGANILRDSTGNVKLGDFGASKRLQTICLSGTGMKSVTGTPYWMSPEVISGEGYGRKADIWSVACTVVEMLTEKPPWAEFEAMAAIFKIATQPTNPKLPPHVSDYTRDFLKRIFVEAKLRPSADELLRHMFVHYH
Procedure, shortened: as §1

MKK4 = target: T5, MKK4 (Homo sapiens, UniProt P45985)
T5 construct: purchased Reaction Biology Corp
T5 sequence (P45985 1-399): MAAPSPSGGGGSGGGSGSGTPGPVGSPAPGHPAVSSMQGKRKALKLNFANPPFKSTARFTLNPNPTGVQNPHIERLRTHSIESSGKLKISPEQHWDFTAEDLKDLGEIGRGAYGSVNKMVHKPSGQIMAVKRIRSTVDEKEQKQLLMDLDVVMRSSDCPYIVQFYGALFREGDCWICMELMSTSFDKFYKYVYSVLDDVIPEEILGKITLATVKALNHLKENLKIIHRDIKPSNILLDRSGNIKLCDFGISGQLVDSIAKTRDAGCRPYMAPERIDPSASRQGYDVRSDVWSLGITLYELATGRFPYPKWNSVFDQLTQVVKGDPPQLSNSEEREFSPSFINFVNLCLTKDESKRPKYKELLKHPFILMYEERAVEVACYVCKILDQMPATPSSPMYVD
Procedure, shortened: as §1

PAK6 = target: T6, PAK6 (Homo sapiens, UniProt Q9NQU5)
T6 construct: purchased Reaction Biology Corp
Procedure, shortened: as §1

PKAcg = target: T7, PKAcg (Homo sapiens, UniProt P22612)
T7 construct: purchased Reaction Biology Corp
Procedure, shortened: as §1

ROCK2 = target: T8, ROCK2 (Homo sapiens, UniProt O75116)
T8 construct: purchased Reaction Biology Corp
Procedure, shortened: as §1

TAK1 = target: T9, TAK1 (Homo sapiens, UniProt O43318)
T9 construct: purchased Reaction Biology Corp
T9 sequence (O43318 1-303 limits assumed): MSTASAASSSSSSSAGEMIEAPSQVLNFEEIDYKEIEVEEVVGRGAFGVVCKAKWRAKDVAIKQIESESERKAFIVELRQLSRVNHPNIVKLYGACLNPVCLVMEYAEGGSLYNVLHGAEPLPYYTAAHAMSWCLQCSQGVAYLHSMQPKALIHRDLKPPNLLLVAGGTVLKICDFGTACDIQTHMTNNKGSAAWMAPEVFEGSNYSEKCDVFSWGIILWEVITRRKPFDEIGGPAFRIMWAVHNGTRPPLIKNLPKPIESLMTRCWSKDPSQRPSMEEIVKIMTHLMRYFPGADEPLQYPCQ
Procedure, shortened: as §1

TYK1/LTK = target: T10, TYK1/LTK (Homo sapiens, UniProt P29376)
T10 construct: purchased Reaction Biology Corp
Procedure, shortened: as §1

[1] = read-out: % Enzyme Activity (relative to DMSO controls) Run 1
[2] = read-out: % Enzyme Activity (relative to DMSO controls) Run 2

T1 sequence (P21802 22-821): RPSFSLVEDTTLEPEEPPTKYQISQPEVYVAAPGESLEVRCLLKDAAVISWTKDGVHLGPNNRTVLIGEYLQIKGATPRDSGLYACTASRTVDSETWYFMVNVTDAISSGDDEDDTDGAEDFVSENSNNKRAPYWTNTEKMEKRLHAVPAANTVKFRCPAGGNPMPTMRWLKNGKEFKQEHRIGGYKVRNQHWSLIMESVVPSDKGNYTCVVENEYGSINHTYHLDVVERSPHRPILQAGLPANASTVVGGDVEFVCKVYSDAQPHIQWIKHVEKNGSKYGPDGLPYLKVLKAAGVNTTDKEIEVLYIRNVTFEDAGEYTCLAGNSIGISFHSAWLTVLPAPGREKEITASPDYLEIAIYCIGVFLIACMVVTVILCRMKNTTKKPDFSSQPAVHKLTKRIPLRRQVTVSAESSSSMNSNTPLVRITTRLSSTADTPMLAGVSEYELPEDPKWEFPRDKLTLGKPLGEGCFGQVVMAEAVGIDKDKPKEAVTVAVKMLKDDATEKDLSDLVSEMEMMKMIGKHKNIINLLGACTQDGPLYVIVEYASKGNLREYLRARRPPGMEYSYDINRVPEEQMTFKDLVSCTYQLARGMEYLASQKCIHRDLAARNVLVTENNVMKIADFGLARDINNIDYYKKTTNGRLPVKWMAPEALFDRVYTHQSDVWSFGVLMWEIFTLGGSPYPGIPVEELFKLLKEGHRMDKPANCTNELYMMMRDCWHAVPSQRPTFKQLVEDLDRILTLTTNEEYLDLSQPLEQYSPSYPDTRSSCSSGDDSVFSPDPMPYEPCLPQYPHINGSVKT
T7 sequence (P22612 whole entry): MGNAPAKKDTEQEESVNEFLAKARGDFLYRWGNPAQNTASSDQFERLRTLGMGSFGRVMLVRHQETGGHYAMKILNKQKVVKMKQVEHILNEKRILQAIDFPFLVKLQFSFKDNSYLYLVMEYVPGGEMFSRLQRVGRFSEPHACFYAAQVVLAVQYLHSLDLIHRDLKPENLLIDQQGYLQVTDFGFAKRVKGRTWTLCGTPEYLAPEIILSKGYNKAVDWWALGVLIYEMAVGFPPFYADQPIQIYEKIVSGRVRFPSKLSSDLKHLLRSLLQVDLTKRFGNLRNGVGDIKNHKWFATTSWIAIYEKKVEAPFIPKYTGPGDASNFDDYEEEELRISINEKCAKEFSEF
T2 sequence (P07333 20-972): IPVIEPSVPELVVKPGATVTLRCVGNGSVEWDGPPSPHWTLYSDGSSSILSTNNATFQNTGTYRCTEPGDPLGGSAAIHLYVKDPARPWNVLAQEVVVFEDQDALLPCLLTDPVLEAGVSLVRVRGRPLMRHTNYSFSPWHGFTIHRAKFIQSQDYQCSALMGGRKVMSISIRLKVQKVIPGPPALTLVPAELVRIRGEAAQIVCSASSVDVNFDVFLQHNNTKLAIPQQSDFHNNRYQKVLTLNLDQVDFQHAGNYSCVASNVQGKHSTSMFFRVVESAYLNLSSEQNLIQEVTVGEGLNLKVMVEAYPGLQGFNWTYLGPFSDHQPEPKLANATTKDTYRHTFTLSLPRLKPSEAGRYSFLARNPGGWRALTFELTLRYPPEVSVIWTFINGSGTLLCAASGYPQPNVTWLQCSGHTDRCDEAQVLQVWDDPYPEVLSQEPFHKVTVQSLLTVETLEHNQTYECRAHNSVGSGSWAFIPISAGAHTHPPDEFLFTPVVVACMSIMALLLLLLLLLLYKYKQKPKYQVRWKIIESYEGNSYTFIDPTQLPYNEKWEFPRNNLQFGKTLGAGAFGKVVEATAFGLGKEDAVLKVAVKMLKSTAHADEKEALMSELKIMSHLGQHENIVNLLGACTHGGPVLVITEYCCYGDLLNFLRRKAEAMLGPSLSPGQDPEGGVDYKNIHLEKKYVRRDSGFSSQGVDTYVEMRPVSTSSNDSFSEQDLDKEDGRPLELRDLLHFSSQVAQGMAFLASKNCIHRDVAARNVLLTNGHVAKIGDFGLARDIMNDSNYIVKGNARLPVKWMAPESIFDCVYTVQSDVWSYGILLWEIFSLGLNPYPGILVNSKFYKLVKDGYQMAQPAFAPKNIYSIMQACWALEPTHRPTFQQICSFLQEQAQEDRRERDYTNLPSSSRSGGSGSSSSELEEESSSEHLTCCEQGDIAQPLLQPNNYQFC
T6 sequence (Q9NQU5 whole entry): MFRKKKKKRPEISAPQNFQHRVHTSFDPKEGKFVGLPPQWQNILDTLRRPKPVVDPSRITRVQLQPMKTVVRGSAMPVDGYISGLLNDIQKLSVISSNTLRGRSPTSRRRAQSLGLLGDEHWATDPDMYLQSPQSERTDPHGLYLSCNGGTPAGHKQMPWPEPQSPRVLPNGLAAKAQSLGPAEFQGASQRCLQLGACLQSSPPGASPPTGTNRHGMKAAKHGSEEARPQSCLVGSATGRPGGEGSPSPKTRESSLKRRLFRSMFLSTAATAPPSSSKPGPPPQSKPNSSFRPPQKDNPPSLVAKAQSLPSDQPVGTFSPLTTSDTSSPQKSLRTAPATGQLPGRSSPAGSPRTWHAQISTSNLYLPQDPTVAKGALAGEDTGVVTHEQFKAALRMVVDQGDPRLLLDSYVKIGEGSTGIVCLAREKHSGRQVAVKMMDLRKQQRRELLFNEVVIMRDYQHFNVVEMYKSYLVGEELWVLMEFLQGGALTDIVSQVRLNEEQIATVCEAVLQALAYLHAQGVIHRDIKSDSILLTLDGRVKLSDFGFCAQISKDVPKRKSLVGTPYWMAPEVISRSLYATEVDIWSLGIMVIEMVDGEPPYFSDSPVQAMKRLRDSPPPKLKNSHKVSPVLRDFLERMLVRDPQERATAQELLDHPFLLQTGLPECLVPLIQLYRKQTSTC
T3 sequence (P49840 whole entry): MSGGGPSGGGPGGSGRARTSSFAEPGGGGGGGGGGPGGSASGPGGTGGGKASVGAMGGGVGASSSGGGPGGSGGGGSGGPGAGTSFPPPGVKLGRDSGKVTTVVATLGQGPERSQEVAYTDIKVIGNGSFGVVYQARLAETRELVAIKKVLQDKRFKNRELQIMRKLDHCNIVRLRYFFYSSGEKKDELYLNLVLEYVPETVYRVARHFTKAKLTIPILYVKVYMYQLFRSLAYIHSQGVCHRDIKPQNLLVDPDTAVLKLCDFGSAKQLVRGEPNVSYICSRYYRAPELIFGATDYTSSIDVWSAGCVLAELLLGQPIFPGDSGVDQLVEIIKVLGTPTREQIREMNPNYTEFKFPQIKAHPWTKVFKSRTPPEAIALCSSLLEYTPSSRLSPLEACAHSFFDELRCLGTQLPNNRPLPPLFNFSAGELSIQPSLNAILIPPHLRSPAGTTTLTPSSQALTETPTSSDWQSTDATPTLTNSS
T10 sequence (P29376 17-864): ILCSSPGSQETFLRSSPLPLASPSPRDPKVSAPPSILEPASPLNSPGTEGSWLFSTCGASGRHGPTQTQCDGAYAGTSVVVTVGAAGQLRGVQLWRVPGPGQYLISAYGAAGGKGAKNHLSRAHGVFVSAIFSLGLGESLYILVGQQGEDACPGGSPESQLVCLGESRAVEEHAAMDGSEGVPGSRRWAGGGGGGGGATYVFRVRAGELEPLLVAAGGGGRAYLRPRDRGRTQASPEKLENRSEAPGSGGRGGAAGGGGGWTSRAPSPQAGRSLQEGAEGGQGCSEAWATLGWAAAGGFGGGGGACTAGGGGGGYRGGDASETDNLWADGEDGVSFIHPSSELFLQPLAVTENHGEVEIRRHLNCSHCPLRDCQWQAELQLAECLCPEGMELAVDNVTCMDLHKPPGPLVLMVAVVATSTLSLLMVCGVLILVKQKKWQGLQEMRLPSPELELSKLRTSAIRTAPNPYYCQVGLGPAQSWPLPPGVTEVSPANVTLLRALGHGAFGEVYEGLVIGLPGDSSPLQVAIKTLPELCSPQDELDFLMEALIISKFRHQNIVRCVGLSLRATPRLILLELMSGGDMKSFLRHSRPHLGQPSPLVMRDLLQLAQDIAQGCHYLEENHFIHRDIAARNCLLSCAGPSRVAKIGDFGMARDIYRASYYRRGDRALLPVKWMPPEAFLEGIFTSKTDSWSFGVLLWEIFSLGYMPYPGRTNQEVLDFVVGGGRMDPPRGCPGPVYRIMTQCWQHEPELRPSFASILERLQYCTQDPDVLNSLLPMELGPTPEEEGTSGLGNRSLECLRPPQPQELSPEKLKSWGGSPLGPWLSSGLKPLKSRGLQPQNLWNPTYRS

C=CC(=O)Nc1cccc(Nc2nc(Nc3ccc(OCCOC)c(F)c3)ncc2F)c1 [Compound 2]
inhibition at 3 µM (FGFR2): 63.4% | remaining activity at 3 µM (FGFR2; [1]): 37.3% | remaining activity at 3 µM (FGFR2; [2]): 36% | inhibition at 3 µM (FMS): 34.1% | remaining activity at 3 µM (FMS; [1]): 64.5% | remaining activity at 3 µM (FMS; [2]): 67.3% | inhibition at 3 µM (GSK3a): 24.5% | remaining activity at 3 µM (GSK3a; [1]): 76% | remaining activity at 3 µM (GSK3a; [2]): 75% | inhibition at 3 µM (MEKK2): -10.9% | remaining activity at 3 µM (MEKK2; [1]): 108% | remaining activity at 3 µM (MEKK2; [2]): 114% | inhibition at 3 µM (MKK4): -16.6% | remaining activity at 3 µM (MKK4; [1]): 117% | remaining activity at 3 µM (MKK4; [2]): 116% | inhibition at 3 µM (PAK6): 18% | remaining activity at 3 µM (PAK6; [1]): 79.3% | remaining activity at 3 µM (PAK6; [2]): 84.8% | inhibition at 3 µM (PKAcg): -27.8% | remaining activity at 3 µM (PKAcg; [1]): 128% | remaining activity at 3 µM (PKAcg; [2]): 128% | inhibition at 3 µM (ROCK2): -1.88% | remaining activity at 3 µM (ROCK2; [1]): 102% | remaining activity at 3 µM (ROCK2; [2]): 101% | inhibition at 3 µM (TAK1): 27.3% | remaining activity at 3 µM (TAK1; [1]): 73.4% | remaining activity at 3 µM (TAK1; [2]): 72% | inhibition at 3 µM (TYK1/LTK): 23.2% | remaining activity at 3 µM (TYK1/LTK; [1]): 77.8% | remaining activity at 3 µM (TYK1/LTK; [2]): 75.8%
